Patent US5654451A, “Amino acids and peptides having modified C-terminals and modified N-terminals” (Magainin Pharmaceuticals Inc., priority 1995, dated 1997)
≈ marks a conversion by molar mass, not a printed value. One block for each compound: values may come before it.

What was measured:
Test in all cases: Antimicrobial assay (MIC, microtiter broth dilution)
Type in all cases: cell-based
C. parapsilosis = details: for MIC C. parapsilosis 10232: strain 10232; for MIC C. parapsilosis 22109: strain 22109
C. kefyr = details: strain 28838
E. coli = details: for MIC E. coli: Table I, E. coli ATCC 25922; for MIC E. coli 25922: strain 25922 (Tables II-V)
Experimental: (§1) The procedure for the antimicrobial assay is based upon the guidelines of the National Committee for Clinical Laboratory Standards, Document M7-T2, Volume 8, No. 8, 1988.
(§2) 1-5×10^5 CFUs/ml of either S. aureus ATCC 25923, E. coli ATCC 25922, P. aeruginosa ATCC 27853, or C. albicans were added to the wells in full strength Mueller Hinton broth (BBL 11443) from a mid-log culture. The inoculum is standardized spectrophotometrically at 600 nm and is verified by colony counts. The plates are incubated for 16-20 hours at 37° C., and the minimal inhibitory concentrations (MIC) for the compounds are determined. Minimal inhibitory concentration is defined as the lowest concentration of amino acid or peptide which produces a clear well in the microtiter plate.

C. albicans = details: for MIC C. albicans: Table I; for MIC C. albicans 14053: strain 14053
Experimental: as §1, §2

P. aeruginosa = details: for MIC P aeruginosa: Table I, P. aeruginosa ATCC 27853; for MIC P. aeruginosa 27853: strain 27853 (Tables II-V)
Experimental: as §1, §2

S. aureus = details: for MIC S. aureus: Table I, S. aureus ATCC 25923; for MIC S. aureus 29213: strain 29213 (Tables II-V)
Experimental: as §1, §2

C. tropicalis = details: for MIC C. tropicalis 13803: strain 13803; for MIC C. tropicalis 28707: strain 28707
E. faecalis = details: for MIC E. faecalis 23296: strain 23296; for MIC E. faecalis 29212: strain 29212
P. mirabilis = details: for MIC P. mirabilis 23147: strain 23147; for MIC P. mirabilis 24231: strain 24231
E. floccosum = details: strain 52062
S. marcescens = details: for MIC S. marcescens 18963: strain 18963; for MIC S. marcescens 23420: strain 23420
P. gingivalis = test system: P. gingivalis
E. faecium = details: strain 26143
T. rubrum = details: strain 36262
M. canis = details: strain 11621
T. mentagrophytes = details: strain 18748
C. difficile = details: for MIC C. difficile P324: strain P324; for MIC C. difficile TTU614: strain TTU614
L. fermentum = details: strain 23271
B. fragilis = details: strain 25285
S. epidermidis = test system: S. epidermidis

SMILES: NC(N)=NC(Cc1ccccc1)C(=O)NCCCCCCCCCCCCNC(=O)C(Cc1ccccc1)N=C(N)N (stereo not drawn) [Compound 3, 1,12-[bis-N-α-amidino-phenylalanyl]diaminododecane]
MIC C. parapsilosis 10232 (C. parapsilosis): 2 µg/mL (≈ 3.46 µM) | MIC C. parapsilosis 22109 (C. parapsilosis): 2 µg/mL (≈ 3.46 µM) | MIC E. faecalis 19052 (E. faecalis; strain 19052): 1,2 μg/ml | MIC E. faecalis 19290 (E. faecalis; strain 19290): 1,2 μg/ml | MIC E. faecalis 23296 (E. faecalis): 1,2 μg/ml | MIC E. faecalis 29212 (E. faecalis): 1,2 μg/ml | MIC P. mirabilis 23147 (P. mirabilis): > 256 µg/mL | MIC P. mirabilis 24231 (P. mirabilis): > 256 µg/mL | MIC C. kefyr 28838 (C. kefyr): 2 µg/mL (≈ 3.46 µM) | MIC E. floccosum 52062 (E. floccosum): 16 µg/mL (≈ 27.6 µM) | MIC S. marcescens 18963 (S. marcescens): 64 µg/mL (≈ 111 µM) | MIC S. marcescens 23420 (S. marcescens): > 256 µg/mL | MIC P. gingivalis 9-14K-1 (P. gingivalis; strain 9-14K-1): 4 µg/mL (≈ 6.91 µM) | MIC P. gingivalis 381 (P. gingivalis; strain 381): 4 µg/mL (≈ 6.91 µM) | MIC P. gingivalis A7A1-28 (P. gingivalis; strain A7A1-28): 4 µg/mL (≈ 6.91 µM) | MIC P. gingivalis FAY-19M-1 (P. gingivalis; strain FAY-19M-1): 4 µg/mL (≈ 6.91 µM) | MIC P. gingivalis W50 (P. gingivalis; strain W50): 4 µg/mL (≈ 6.91 µM) | MIC E. faecium 26143 (E. faecium): 2 µg/mL (≈ 3.46 µM) | MIC T. rubrum 36262 (T. rubrum): 16 µg/mL (≈ 27.6 µM) | MIC M. canis 11621 (M. canis): 32 µg/mL (≈ 55.3 µM) | MIC E. coli (E. coli): 4 µg/mL (≈ 6.91 µM) | MIC E. coli 25922 (E. coli): 4 µg/mL (≈ 6.91 µM) | MIC C. albicans (C. albicans): 4 µg/mL (≈ 6.91 µM) | MIC C. albicans 14053 (C. albicans): 4 µg/mL (≈ 6.91 µM) | MIC P aeruginosa (P. aeruginosa): 8 µg/mL (≈ 13.8 µM) | MIC P. aeruginosa 27853 (P. aeruginosa): 4,32 μg/ml | MIC S. aureus (S. aureus): 1 µg/mL (≈ 1.73 µM) | MIC S. aureus 29213 (S. aureus): 1 µg/mL (≈ 1.73 µM) | MIC T. mentagrophytes 18748 (T. mentagrophytes): 16 µg/mL (≈ 27.6 µM) | MIC C. tropicalis 13803 (C. tropicalis): 2 µg/mL (≈ 3.46 µM) | MIC C. tropicalis 28707 (C. tropicalis): 0.5 µg/mL (≈ 0.864 µM)

SMILES: N=C(N)NC(Cc1ccc(O)cc1)C(=O)NCCCCCCCCCCCCNC(=O)C(Cc1ccc(O)cc1)NC(=N)N (stereo not drawn) [Compound 4, 1,12-[bis-N-α-amidino-tyrosyl)diaminododecane]
MIC C. difficile P324 (C. difficile): 4 µg/mL (≈ 6.55 µM) | MIC C. difficile TTU614 (C. difficile): 32 µg/mL (≈ 52.4 µM) | MIC L. fermentum 23271 (L. fermentum): 4,8 μg/ml | MIC B. fragilis 25285 (B. fragilis): 256 µg/mL (≈ 419 µM) | MIC E. coli (E. coli): 128 µg/mL (≈ 210 µM) | MIC E. coli 25922 (E. coli): 64,256 μg/ml | MIC C. albicans (C. albicans): > 256 µg/mL | MIC C. albicans 14053 (C. albicans): 128,256 μg/ml | MIC P aeruginosa (P. aeruginosa): 128 µg/mL (≈ 210 µM) | MIC P. aeruginosa 27853 (P. aeruginosa): 128 µg/mL (≈ 210 µM) | MIC S. aureus (S. aureus): 2 µg/mL (≈ 3.27 µM) | MIC S. aureus 29213 (S. aureus): 2,4 μg/ml

SMILES: N=C(N)NC(Cc1ccc(F)cc1)C(=O)NCCCCCCCCCCCCNC(=O)C(Cc1ccc(F)cc1)NC(=N)N (stereo not drawn) [Compound 11, 1,12-[bis-N-α-amidino-p-fluoro-phenylalanyl]diaminododecane]
MIC C. difficile P324 (C. difficile): 2 µg/mL (≈ 3.25 µM) | MIC C. difficile TTU614 (C. difficile): 4 µg/mL (≈ 6.51 µM) | MIC C. parapsilosis 10232 (C. parapsilosis): 1,2 μg/ml | MIC C. parapsilosis 22109 (C. parapsilosis): 1 µg/mL (≈ 1.63 µM) | MIC E. faecalis 23296 (E. faecalis): 1 µg/mL (≈ 1.63 µM) | MIC E. faecalis 29212 (E. faecalis): 1 µg/mL (≈ 1.63 µM) | MIC P. mirabilis 23147 (P. mirabilis): > 256 µg/mL | MIC P. mirabilis 24231 (P. mirabilis): 7256 µg/mL (≈ 11800 µM) | MIC L. fermentum 23271 (L. fermentum): 1 µg/mL (≈ 1.63 µM) | MIC C. kefyr 28838 (C. kefyr): 1 µg/mL (≈ 1.63 µM) | MIC B. fragilis 25285 (B. fragilis): 2 µg/mL (≈ 3.25 µM) | MIC E. floccosum 52062 (E. floccosum): 4 µg/mL (≈ 6.51 µM) | MIC S. marcescens 18963 (S. marcescens): 16 µg/mL (≈ 26 µM) | MIC S. marcescens 23420 (S. marcescens): > 256 µg/mL | MIC E. faecium 26143 (E. faecium): 1 µg/mL (≈ 1.63 µM) | MIC T. rubrum 36262 (T. rubrum): 8 µg/mL (≈ 13 µM) | MIC M. canis 11621 (M. canis): 4 µg/mL (≈ 6.51 µM) | MIC E. coli (E. coli): 4 µg/mL (≈ 6.51 µM) | MIC E. coli 25922 (E. coli): 2,16 μg/ml | MIC C. albicans (C. albicans): 16 µg/mL (≈ 26 µM) | MIC C. albicans 14053 (C. albicans): 2,64 μg/ml | MIC P aeruginosa (P. aeruginosa): 8 µg/mL (≈ 13 µM) | MIC P. aeruginosa 1133 (P. aeruginosa; strain 1133): 32 µg/mL (≈ 52.1 µM) | MIC P. aeruginosa 27853 (P. aeruginosa): 8,16 μg/ml | MIC P. aeruginosa El Salvador (P. aeruginosa; strain El Salvador): 128 µg/mL (≈ 208 µM) | MIC S. aureus (S. aureus): 2 µg/mL (≈ 3.25 µM) | MIC S. aureus 1093 (S. aureus; strain 1093): 2 µg/mL (≈ 3.25 µM) | MIC S. aureus 1096 (S. aureus; strain 1096): 2 µg/mL (≈ 3.25 µM) | MIC S. epidermidis 1050 (S. epidermidis; strain 1050): 1 µg/mL (≈ 1.63 µM) | MIC S. epidermidis 1090 (S. epidermidis; strain 1090): 2 µg/mL (≈ 3.25 µM) | MIC T. mentagrophytes 18748 (T. mentagrophytes): 4 µg/mL (≈ 6.51 µM) | MIC C. tropicalis 13803 (C. tropicalis): 2 µg/mL (≈ 3.25 µM) | MIC C. tropicalis 28707 (C. tropicalis): 0.5 µg/mL (≈ 0.813 µM)

SMILES: NC(N)=NC(Cc1ccccc1)C(=O)NCCCCCCCNC(=O)C(Cc1ccccc1)N=C(N)N (stereo not drawn) [Compound 6, 1,7-[bis-N-α-amidino-phenylalanyl]diaminoheptane]
MIC C. difficile P324 (C. difficile): 128 µg/mL (≈ 252 µM) | MIC L. fermentum 23271 (L. fermentum): 64 µg/mL (≈ 126 µM) | MIC B. fragilis 25285 (B. fragilis): 256 µg/mL (≈ 503 µM) | MIC E. coli (E. coli): > 256 µg/mL | MIC E. coli 25922 (E. coli): > 256 µg/mL | MIC C. albicans (C. albicans): 256 µg/mL (≈ 503 µM) | MIC C. albicans 14053 (C. albicans): 256 µg/mL (≈ 503 µM) | MIC P aeruginosa (P. aeruginosa): > 256 µg/mL | MIC P. aeruginosa 27853 (P. aeruginosa): > 256 µg/mL | MIC S. aureus (S. aureus): 64 µg/mL (≈ 126 µM) | MIC S. aureus 29213 (S. aureus): 64,128 μg/ml

The next lines start with the values.

MIC C. parapsilosis 10232 (C. parapsilosis): 0.5 µg/mL (≈ 1.76 µM) | MIC C. parapsilosis 22109 (C. parapsilosis): 4 µg/mL (≈ 14.1 µM) | MIC C. kefyr 28838 (C. kefyr): 4 µg/mL (≈ 14.1 µM) | MIC E. coli (E. coli): 32 µg/mL (≈ 112 µM) | MIC E. coli 25922 (E. coli): 32 µg/mL (≈ 112 µM) | MIC C. albicans (C. albicans): 32 µg/mL (≈ 112 µM) | MIC C. albicans 14053 (C. albicans): 4,32 μg/ml | MIC P aeruginosa (P. aeruginosa): 128 µg/mL (≈ 450 µM) | MIC P. aeruginosa 27853 (P. aeruginosa): 128 µg/mL (≈ 450 µM) | MIC S. aureus (S. aureus): 8 µg/mL (≈ 28.1 µM) | MIC S. aureus 29213 (S. aureus): 8 µg/mL (≈ 28.1 µM) | MIC C. tropicalis 13803 (C. tropicalis): 0.5 µg/mL (≈ 1.76 µM) | MIC C. tropicalis 28707 (C. tropicalis): ≤ 0.25 µg/mL
SMILES: N=C(N)NCCCCCCCCCCCCNC(=N)N [Compound 36, 1,12 [bisguanyl]diaminododecane]

MIC C. difficile TTU614 (C. difficile): 16 µg/mL (≈ 29.3 µM) | MIC L. fermentum 23271 (L. fermentum): 4 µg/mL (≈ 7.32 µM) | MIC B. fragilis 25285 (B. fragilis): 8 µg/mL (≈ 14.6 µM) | MIC E. coli 25922 (E. coli): 16 µg/mL (≈ 29.3 µM) | MIC C. albicans 14053 (C. albicans): 256 µg/mL (≈ 468 µM) | MIC P. aeruginosa 27853 (P. aeruginosa): 32,64 μg/ml
SMILES: N=C(N)NC(Cc1ccccc1)C(=O)Nc1ccc(C=Cc2ccc(NC(=O)C(N)Cc3ccccc3)cc2)cc1 (stereo not drawn) [Compound 24, 4-(N-α-amidino-phenylalanyl)-4'-phenylalanyl-diaminostilbene]

MIC E. floccosum 52062 (E. floccosum): 16 µg/mL (≈ 30.1 µM) | MIC T. rubrum 36262 (T. rubrum): 16 µg/mL (≈ 30.1 µM) | MIC M. canis 11621 (M. canis): 32 µg/mL (≈ 60.3 µM) | MIC E. coli 25922 (E. coli): 16 µg/mL (≈ 30.1 µM) | MIC C. albicans 14053 (C. albicans): 32 µg/mL (≈ 60.3 µM) | MIC P. aeruginosa 27853 (P. aeruginosa): 256 µg/mL (≈ 482 µM) | MIC S. aureus 29213 (S. aureus): 4 µg/mL (≈ 7.54 µM) | MIC T. mentagrophytes 18748 (T. mentagrophytes): 4 µg/mL (≈ 7.54 µM)
SMILES: NC(Cc1ccc(F)cc1)C(=O)NCCCCCCCCCCCCNC(=O)C(N)Cc1ccc(F)cc1 (stereo not drawn) [Compound 19]
